Assays:
[1] = tested on: UBE3A protein; experiment: western blot of UBE3A protein in HEK293T cells; type: cell-based, human; conditions: 1 µM, 48 h
Method: Human HEK293T cells were treated
Following the treatment, the
individual wells per treatment, as depicted in ( c). All data were normalized to GAPDH/ GAPD H
dimethyl sulfoxide; kDA – kilodalton. Source data and comprehensive statistics, including F-values, […]

[2] = tested on: CDK5/p25 complex; set-up: method as in PMID 15828833; conditions: read-out: IC50 against CDK5/p25 complex; cited from earlier work
[3] = cytotoxicity (% viable DAPI/NeuN neurons vs DMSO) in mouse primary neurons; type: cell-based; conditions: primary cortical neurons from E15.5 mouse embryos, mean ± SEM, n = 3
Method: Immunofluorescence for high-content imaging analysis was performed as previously described with slight modifications. Following drug treatment at DIV7, primary neurons were fixed at DIV10 with 4% paraformaldehyde in PBS at room temperature (RT) for 10 min. After three brief washes in PBS, neurons were permeabilized with PBS/1% Triton-X-100 at RT for 10 min, followed by blocking with PBS including 5% normal goat serum and 0.2% Triton-X-100 (NGST) at RT. […] All acquired images were analyzed by CellProfiler[48]. The mean GFP signal from each drug-treated well was normalized to the average mean GFP signal from DMSO-treated neurons. […] Fluorescent images were acquired using a Nikon Ti2 eclipse fluorescence microscope (Nikon Instruments Inc.) and analyzed using Nikon NIS-Elements software (Nikon Instruments Inc.). Antibody-enhanced UBE3A-YFP fluorescence intensities were determined from DAPI and NeuN double-positive neurons in drug-treated wells and normalized to neurons in DMSO-treated wells. The cytotoxicity of a compound was determined by calculating the percentage of neurons (DAPI and NeuN double-positive cells) alive in drug-treated wells compared to the DMSO-treated wells. For determining the effectiveness of unsilencing, the percent neurons expressing GFP signal in neurons (DAPI and NeuN double-positive cells) in drug-treated wells was thresholded such that the percent GFP positive neurons in DMSO-treated wells was set to ~5%. Concentrations where more than 10% of neurons were dead compared to DMSO-treated wells were manually removed and the last included data point was set as a maximum efficacy. Sigmoidal curve fitting for the dose-response analysis was performed using GraphPad Prism software version 8.0 (GraphPad Software).

[4] = tested on: Snord115; conditions: 72 h at DIV7; 0.3 µM topotecan, 1 µM (S)- or (R)-PHA533533, 0.1 µM 2, 0.1 µM 3, 0.3 µM (±)-4, 5 µM (S,R)-5
Method: (§1) Next, 1 ml of Neurobasal Plus medium (A3582901, ThermoFisher) containing 5% FBS (TMS-013-B; MilliporeSigma) was added to the cortical mixture to deactivate the papain and subsequently triturated. […] Isolated cortical neurons were plated onto poly-D-lysine coated 384-well plates at 2 × 10^4 cell/well for screening and dose-response assays, or 6-well plates at 1 × 10^6 cell/well for molecular and biochemical assays (western blot, ASO-dependent knock-down, and quantitative RT-PCR).
(§2) For RNA isolation, cultured cortical neurons were lysed using 350 μl of RLT lysis buffer (Qiagen) per well on a 6-well plate. For isolating RNA from mouse brain tissue, microdissected brain regions were snap-frozen in liquid nitrogen and stored at −80 °C until the day of RNA extraction, and then lysed using RLT lysis buffer containing 1% of β-mercaptoethanol. Total RNA was extracted from both cultured cells and brain tissue using RNeasy Mini kit (Qiagen). cDNA was synthesized from 1 μg of total RNA using qScript cDNA Supermix (Quantabio). 1/25 of synthesized cDNA was used per qPCR reaction together with PowerUp SYBR Green Master Mix (A25742, Applied Biosystems) and a specific primer pair (Table 2). qPCR was performed in a QuantStudio 5 Real-Time PCR system (Applied Biosystems). The specificity of the amplification products was verified by melting curve analysis. All qPCRs were conducted in technical triplicates, and the results were averaged for each sample, normalized to Gapdh expression, and analyzed using the comparative CT method (∆∆CT).

[5] = tested on: Snord116; conditions: 72 h at DIV7; 0.3 µM topotecan, 1 µM (S)-PHA533533, 0.1 µM 2, 0.1 µM 3, 0.3 µM (±)-4, 5 µM (S,R)-5
Method: as §1, §2

[6] = tested on: Snrpn; conditions: 72 h at DIV7; 0.3 µM topotecan, 1 µM (S)-PHA533533, 0.1 µM 2, 0.1 µM 3, 0.3 µM (±)-4, 5 µM (S,R)-5
Method: as §1, §2

[7] = tested on: Ube3a mRNA; conditions: Ube3a m-/p+ neurons, 72 h at DIV7; 0.3 µM topotecan, 1 µM (S)- or (R)-PHA533533, 0.1 µM 2, 0.1 µM 3, 0.3 µM (±)-4, 5 µM (S,R)-5
Method: as §1, §2

Row | Structure (SMILES) | UBE3A protein levels vs DMSO [1] | IC50 [2] [nM] | CC50 at 72 h [3] [nM] | relative quantity of Snord115 vs DMSO [4] | relative quantity of Snord116 vs DMSO [5] | relative quantity of Snrpn vs DMSO [6] | Ube3a mRNA levels vs DMSO [7]
1 | C[C@H](C(=O)Nc1cc(C2CC2)[nH]n1)c1ccc(N2CCCC2=O)cc1 [(S)-PHA533533] | does not affect | 65 |  |  |  |  | 
2 | CC[C@@]1(O)C(=O)OCc2c1cc1n(c2=O)Cc2cc3c(CN(C)C)c(O)ccc3nc2-1 [Topotecan, reference compound] |  |  | 2130 ± 620 | significantly reduced | without affecting | significantly reduced | significantly increased

Source: publication PMC11231141, “Ube3a unsilencer for the potential treatment of Angelman syndrome” (Nature Communications, 2024)
